Where “and” joins values, the source holds several entries; their conditions need not be identical. Equal entries are not always repeated. Where two headings read alike, the source gives them in different places.

This is an account of results in publication PMC9370283, “New Quinoxaline-Based Derivatives as PARP-1 Inhibitors: Design, Synthesis, Antiproliferative, and Computational Studies” (Molecules, 2022).

One data set addresses T1, PARP-1 (Homo sapiens, UniProt P09874).
T1 construct: purchased BPS Bioscience 80580
The data set is described as follows: colorimetric 96-well PARP-1 assay kit (BPS Bioscience). The data set is classed as biochemical. As to conditions: for IC50: read-out: IC50 (mean ± SEM) PARP-1.

The test system of a further data set is WI-38. The data set is described as follows: cytotoxicity against normal cells, MTT assay, WI-38. In kind it is cell-based. As to conditions: Homo sapiens, normal cell line, read-out: IC50 (mean ± SEM) WI-38. The protocol:
It has been reported that the frequency and severity of the side effects on normal healthy cells at therapeutic levels are deemed to be critical factors that distinguish different anticancer drugs from each other. […]
to the wells designated as “Blank”. The amount of PARP-1 required for the assay was then calculated. The reaction was initiated by adding 20 µL of diluted PARP-1 en zy me to the wells designated “Positive Control” and “Test Inhibitor Control”. The strip wells were incubated at room temperature for 1 hou r. The strip wells were then wash ed three times with 200 µL of PBST buffer.
Then, 50 µL of 50 times diluted Streptavidin-HRP with blocking buffer was added to each well, and the strips were further incubated at room temperature for 30 min. After washing the wells three times with 200 µL of PBST buffer, HRP colorimetric substrate was added to each well, and the plate was incubated at room temperature until a blue color was developed in the positive control well. Then, the reaction was quenched with 100 µL per well of 2 M sulfuric acid. Carrier solvent (DMSO 5%, v/v) was used as a negative control. All compounds including Ol ap arib were t ested at 5 concentrations (100, 10, 1, 0.1, and 0.01 µM). The optical density (OD) of each well was measured spectrophotometrically at 450 nm with an ELISA microplate reader (ChroMate-4300, FL, USA). The IC50 values were calculated according to the equation for Boltzmann sigmoidal concentration-response curves using the nonlin ear regression fitting model (GraphPad Prism Version 8). All assays were performed in triplicate in 3 repeated experiments. The obtained data are presented as means standard error of the means from 3 independent repeats (n = 3).
4.3.In vitro anticancer screening
The cell lines were purchased from the American Type Culture collection as follows:
Breast Cancer cell lines (MDA-MB-436) and WI38. Cytotoxic activity screening was performed using MTT assay. Exponentially, cells were placed in 10^4 cells/ well for 24 h, and then add fresh med ium containing different concen trations of the tested sample. Serial two-fold dilutions of the tested sample were added using a multichannel pipette. Moreover, all cells were cultivated at 37 °C, with 5% CO2 and 95% humidity. Also, incubation of control cells occurred at 3 7 ° C . […] Rinse the wells using water until no stain. After that, add 30% g lacial acetic acid to all wells with shaking plates on a Microplate reader (TECAN, Inc.) to measure the absorbance, using a test wavelength of 490 nm. Besides, compare the treated samples with the control cell. The cytotoxicity was estimated by IC50 in (μg /mL), the concentration that inhibits 50% of the growth of the examined cell.
For orientation: Tetrazolium assays rely on reduction of a dye to a coloured formazan, in cell work by metabolically active cells.

In a further data set the test system is MDA-MB-436. The data set is described as follows: in vitro cytotoxicity, MTT assay, MDA-MB-436. The settings on record: for SI: MDA-MB-436, matches IC50 WI-38 / IC50 MDA-MB-436; for % viability MDA-MB-436: MTT lab report; for IC50: read-out: IC50 (mean ± SEM) MDA-MB-436.
[1] abbreviates: mutant BRCA1 breast cancer cells, MTT.

T1 sequence (P09874 whole entry): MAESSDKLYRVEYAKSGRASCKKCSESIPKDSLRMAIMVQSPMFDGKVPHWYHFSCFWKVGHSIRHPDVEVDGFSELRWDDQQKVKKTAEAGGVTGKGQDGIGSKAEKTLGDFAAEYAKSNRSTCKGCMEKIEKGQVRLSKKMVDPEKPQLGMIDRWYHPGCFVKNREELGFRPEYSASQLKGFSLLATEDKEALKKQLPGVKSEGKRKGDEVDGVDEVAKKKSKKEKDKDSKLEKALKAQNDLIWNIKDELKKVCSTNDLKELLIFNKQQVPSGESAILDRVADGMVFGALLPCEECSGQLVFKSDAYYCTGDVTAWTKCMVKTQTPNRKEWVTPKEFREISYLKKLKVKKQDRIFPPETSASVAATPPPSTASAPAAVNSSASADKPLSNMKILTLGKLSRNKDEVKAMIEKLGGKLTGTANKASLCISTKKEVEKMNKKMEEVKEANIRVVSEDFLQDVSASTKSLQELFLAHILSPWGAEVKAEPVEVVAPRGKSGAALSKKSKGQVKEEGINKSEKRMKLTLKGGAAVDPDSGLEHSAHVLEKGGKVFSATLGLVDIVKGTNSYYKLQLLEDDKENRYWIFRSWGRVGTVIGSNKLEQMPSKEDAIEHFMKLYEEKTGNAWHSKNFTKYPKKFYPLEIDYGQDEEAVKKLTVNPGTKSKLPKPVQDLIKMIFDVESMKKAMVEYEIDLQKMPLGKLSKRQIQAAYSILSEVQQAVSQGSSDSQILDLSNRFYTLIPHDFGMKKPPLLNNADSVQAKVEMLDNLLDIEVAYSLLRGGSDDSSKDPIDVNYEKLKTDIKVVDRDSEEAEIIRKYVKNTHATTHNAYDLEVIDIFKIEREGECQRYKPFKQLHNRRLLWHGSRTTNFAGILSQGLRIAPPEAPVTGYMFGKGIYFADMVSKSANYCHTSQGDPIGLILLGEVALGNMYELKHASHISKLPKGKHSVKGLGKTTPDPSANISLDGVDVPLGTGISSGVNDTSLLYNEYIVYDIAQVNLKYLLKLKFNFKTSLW

The term IC50 denotes the concentration at which inhibition is half-maximal. The term melting point denotes the temperature of the solid-liquid transition. For `NNS(=O)(=O)c1ccc2[nH]c(=O)c(=O)[nH]c2c1` [Compound 3, 2,3-Dioxo-1,2,3,4-tetrahydroquinoxaline-6-sulfonohydrazide], the melting point was 285 to 287 °C. Besides, the “fold less PARP-1 inhibitory activity than reference drug Olaparib” value on PARP-1 (ratio of IC50 values) is listed as 3 fold. Moreover, the IC50 on PARP-1 is 12.9 ± 4.73 nM.

In the case of `O=C(c1ccccc1)n1c(=O)cc(O)n(NS(=O)(=O)c2ccc3[nH]c(=O)c(=O)[nH]c3c2)c1=S` [Compound 9b, N-(3-benzoyl-6-hydroxy-4-oxo-2-thioxo-3,4-dihydropyrimidin-1(2H)-yl)-2,3-dioxo-1,2,3,4-tetrahydroquinoxaline-6-sulfonamide], the melting point lay within 270 to 272 °C. On PARP-1, the IC50 came out at 35.7 ± 1.82 nM.

Take `O=C1CC(=O)N(S(=O)(=O)c2ccc3[nH]c(=O)c(=O)[nH]c3c2)N1` [Compound 6, 6-((3,5-Dioxopyrazolidin-1-yl)sulfonyl)-1,4-dihydroquinoxaline-2,3-dione]: the melting point was in the range of 270 to 272 °C. Moreover, the “fold less PARP-1 inhibitory activity than reference drug Olaparib” value on PARP-1 (ratio of IC50 values) is about 3 fold. In addition, at PARP-1, the IC50 came to 13.3 ± 0.68 nM.

`O=C(NC(=S)NNS(=O)(=O)c1ccc2[nH]c(=O)c(=O)[nH]c2c1)c1ccccc1` [Compound 8b, N-(2-((2,3-dioxo-1,2,3,4-tetrahydroquinoxalin-6-yl)sulfonyl)hydrazine-1-carbonothioyl)benzamide]: the melting point was in the range of 265 to 267 °C. Also, at PARP-1 (ratio of IC50 values), the “fold less PARP-1 inhibitory activity than reference drug Olaparib” value is recorded as 2.5 fold. The IC50 at PARP-1 is 11.1 ± 0.56 nM.

As to `O=C1C=CC(=O)N1NS(=O)(=O)c1ccc2[nH]c(=O)c(=O)[nH]c2c1` [Compound 7b, N-(2,5-dioxo-2,5-dihydro-1H-pyrrol-1-yl)-2,3-dioxo-1,2,3,4-tetrahydroquinoxaline-6-sulfonamide], the melting point was in the range of 295 to 297 °C. The IC50 on PARP-1 stood at 35.8 ± 1.8 nM.

Turning to `COc1ccc(-n2c(C)c(C(C)=O)sc2=NNS(=O)(=O)c2ccc3[nH]c(=O)c(=O)[nH]c3c2)cc1` [Compound 11a, N’-(5-acetyl-3-(4-methoxyphenyl)-4-methylthiazol-2(3H)-ylidene)-2,3-dioxo-1,2,3,4-tetrahydroquinoxaline-6-sulfonohydrazide], the melting point lay in the range of 185 to 187 °C. Further, the IC50 on PARP-1 was found to be 19.4 ± 0.99 nM.

Regarding `O=C1CSC(=NNS(=O)(=O)c2ccc3[nH]c(=O)c(=O)[nH]c3c2)N1C(=O)c1ccccc1` [Compound 12b, N’-(3-benzoyl-4-oxothiazolidin-2-ylidene)-2,3-dioxo-1,2,3,4-tetrahydroquinoxaline-6-sulfonohydrazide], the melting point lay in the range of 290 to 292 °C. Besides, the IC50 on PARP-1 was 40.5 ± 2.06 nM.

For `COc1ccc(-n2c(C)csc2=NNS(=O)(=O)c2ccc3[nH]c(=O)c(=O)[nH]c3c2)cc1` [Compound 10a, N′-(3-(4-methoxyphenyl)-4-methylthiazol-2(3H)-ylidene)-2,3-dioxo-1,2,3,4-tetrahydroquinoxaline-6-sulfonohydrazide], the melting point lay in the range of 130 to 132 °C. The IC50 at PARP-1 amounted to 21.6 ± 1.1 nM.

For the compound `COc1ccc(-n2c(=O)cc(O)n(NS(=O)(=O)c3ccc4[nH]c(=O)c(=O)[nH]c4c3)c2=S)cc1` [Compound 9a, N-(6-hydroxy-3-(4-methoxyphenyl)-4-oxo-2-thioxo-3,4-dihydropyrimidin-1(2H)-yl)-2,3-dioxo-1,2,3,4-tetrahydroquinoxaline-6-sulfonamide], the melting point was 205 to 207 °C. For the same compound, the IC50 on PARP-1 is 57.4 ± 2.9 nM.

With `O=C1CCC(=O)N1NS(=O)(=O)c1ccc2[nH]c(=O)c(=O)[nH]c2c1` [Compound 7a, N-(2,5-dioxopyrrolidin-1-yl)-2,3-dioxo-1,2,3,4-tetrahydroquinoxaline-6-sulfonamide], the melting point lay in the range of 292 to 294 °C. In addition, the IC50 on PARP-1 amounted to 57.1 ± 2.91 nM.

In the case of `COc1ccc(NC(=S)NNS(=O)(=O)c2ccc3[nH]c(=O)c(=O)[nH]c3c2)cc1` [Compound 8a, 2-((2,3-Dioxo-1,2,3,4-tetrahydroquinoxalin-6-yl)sulfonyl)-N-(4-methoxyphenyl) Hydrazine-1-carbothioamide], at PARP-1 (ratio of IC50 values), the “fold higher PARP-1 inhibitory activity than Olaparib” value is given as about 2 fold. Further, the results for the IC50 at PARP-1, in the data set with WI-38 and in the data set on MDA-MB-436 (setting [1]) were 2.31 ± 0.3 nM, 70460 ± 430 nM and 10700 ± 630 nM, respectively. The compound also showed an SI with MDA-MB-436 of 6.58. Besides, the “% viability MDA-MB-436” value with MDA-MB-436 (log conc. 0.193 (1.6uM)) worked out at 61.23%; with MDA-MB-436 (log conc. 0.796 (6.3uM)), 53.52%; in the data set with MDA-MB-436 (log conc. 1.398 (25uM)) it was 43.91%; in the data set with MDA-MB-436 (log conc. 2 (100uM)), 35.79%; with MDA-MB-436 (log conc. -0.409 (0.4uM)), 73.41%.

In the case of `Cc1csc(=NNS(=O)(=O)c2ccc3[nH]c(=O)c(=O)[nH]c3c2)n1C(=O)c1ccccc1` [Compound 10b, N’-(3-benzoyl-4-methylthiazol-2(3H)-ylidene)-2,3-dioxo-1,2,3,4-tetrahydroquinoxaline-6-sulfonohydrazide], the IC50 stood at 6.35 ± 0.32 nM at PARP-1, 75660 ± 510 nM in the data set on WI-38 and 9620 ± 560 nM in the data set on MDA-MB-436 (setting [1]). This compound also had an SI with MDA-MB-436 of 7.86. Besides, the “% viability MDA-MB-436” value with MDA-MB-436 (log conc. 0.193 (1.6uM)) worked out at 65.24%; in the data set on MDA-MB-436 (log conc. 0.796 (6.3uM)) it was 52.38%; in the data set with MDA-MB-436 (log conc. 1.398 (25uM)), 43.29%; in the data set on MDA-MB-436 (log conc. 2 (100uM)), 32.38%; in the data set with MDA-MB-436 (log conc. -0.409 (0.4uM)), 72.68%.

Consider `O=C(c1cc(Cc2n[nH]c(=O)c3ccccc23)ccc1F)N1CCN(C(=O)C2CC2)CC1` [Olaparib, reference compound], for which the IC50 with MDA-MB-436 is 8900 nM and 8630 nM.

For the compound `COc1ccc(N2C(=O)CSC2=NNS(=O)(=O)c2ccc3[nH]c(=O)c(=O)[nH]c3c2)cc1` [Compound 12a, N’-(3-(4-methoxyphenyl)-4-oxothiazolidin-2-ylidene)-2,3-dioxo-1,2,3,4-tetrahydro quinoxaline-6-sulfonohydrazide], the melting point is 292 to 294 °C. Moreover, the IC50 at PARP-1 is 36.1 ± 1.84 nM.

With `Cc1cc(O)n(S(=O)(=O)c2ccc3[nH]c(=O)c(=O)[nH]c3c2)n1` [Compound 4, 6-((5-Hydroxy-3-methyl-1H-pyrazol-1-yl)sulfonyl)-1,4-dihydroquinoxaline-2,3-dione], the “fold less PARP-1 inhibitory activity than reference drug Olaparib” value on PARP-1 (ratio of IC50 values) is reported as about 2 fold. The IC50 at PARP-1 came to 8.73 ± 0.44 nM; in the data set with MDA-MB-436 (setting [1]) it was 30300 ± 1780 nM. The “% viability MDA-MB-436” value with MDA-MB-436 (log conc. 0.193 (1.6uM)) was 69.76%; in the data set on MDA-MB-436 (log conc. 0.796 (6.3uM)), 60.12%; with MDA-MB-436 (log conc. 1.398 (25uM)), 51.83%; in the data set on MDA-MB-436 (log conc. 2 (100uM)), 42.01%; with MDA-MB-436 (log conc. -0.409 (0.4uM)), 81.83%.

As to `CC(=O)c1sc(=NNS(=O)(=O)c2ccc3[nH]c(=O)c(=O)[nH]c3c2)n(C(=O)c2ccccc2)c1C` [Compound 11b, N’-(5-acetyl-3-benzoyl-4-methylthiazol-2(3H)-ylidene)-2,3-dioxo-1,2,3,4-tetrahydro Quinoxaline-6-sulfonohydrazide], the IC50 is 8.25 ± 0.42 nM at PARP-1, 80100 ± 820 nM in the data set with WI-38 and 11500 ± 670 nM with MDA-MB-436 (setting [1]). Besides, the SI in the data set on MDA-MB-436 is recorded as 6.96. The “% viability MDA-MB-436” value in the data set on MDA-MB-436 (log conc. 0.193 (1.6uM)) is reported as 62.03%; with MDA-MB-436 (log conc. 0.796 (6.3uM)), 55.11%; with MDA-MB-436 (log conc. 1.398 (25uM)) it was 44.77%; in the data set with MDA-MB-436 (log conc. 2 (100uM)), 35.26%; in the data set on MDA-MB-436 (log conc. -0.409 (0.4uM)), 73.47%.

For `O=C1c2ccccc2C(=O)N1NS(=O)(=O)c1ccc2[nH]c(=O)c(=O)[nH]c2c1` [Compound 7c, N-(1,3-dioxoisoindolin-2-yl)-2,3-dioxo-1,2,3,4-tetrahydroquinoxaline-6-sulfonamide], the melting point was 207 to 209 °C. On PARP-1, the IC50 is 43.4 ± 0.1 nM.
